These are literature values, as cited in US10828380B2, “Conjugate of polysarcosine and NIR contrast agent for photoacoustic imaging” (CANON KABUSHIKI KAISHA, priority 2015, dated 2020).

In the case of `CC1(C)C(/C=C/C=C/C=C/C=C2/N(CCCCS(=O)(=O)[O-])c3ccc4ccccc4c3C2(C)C)=[N+](CCCCS(=O)(=O)[O-])c2ccc3ccccc3c21.[Na+]` [ICG, indocyanine green], the half-life in blood entry is listed as “about several minutes”.
